The record followed here is patent US8557839B2, “Fused ring azadecalin glucocorticoid receptor modulators” (Corcept Therapeutics, Inc., priority 2004, dated 2013).

Assay [1] deals with T1, glucocorticoid receptors (Homo sapiens, UniProt P04150).
T1 sequence (P04150 1-777): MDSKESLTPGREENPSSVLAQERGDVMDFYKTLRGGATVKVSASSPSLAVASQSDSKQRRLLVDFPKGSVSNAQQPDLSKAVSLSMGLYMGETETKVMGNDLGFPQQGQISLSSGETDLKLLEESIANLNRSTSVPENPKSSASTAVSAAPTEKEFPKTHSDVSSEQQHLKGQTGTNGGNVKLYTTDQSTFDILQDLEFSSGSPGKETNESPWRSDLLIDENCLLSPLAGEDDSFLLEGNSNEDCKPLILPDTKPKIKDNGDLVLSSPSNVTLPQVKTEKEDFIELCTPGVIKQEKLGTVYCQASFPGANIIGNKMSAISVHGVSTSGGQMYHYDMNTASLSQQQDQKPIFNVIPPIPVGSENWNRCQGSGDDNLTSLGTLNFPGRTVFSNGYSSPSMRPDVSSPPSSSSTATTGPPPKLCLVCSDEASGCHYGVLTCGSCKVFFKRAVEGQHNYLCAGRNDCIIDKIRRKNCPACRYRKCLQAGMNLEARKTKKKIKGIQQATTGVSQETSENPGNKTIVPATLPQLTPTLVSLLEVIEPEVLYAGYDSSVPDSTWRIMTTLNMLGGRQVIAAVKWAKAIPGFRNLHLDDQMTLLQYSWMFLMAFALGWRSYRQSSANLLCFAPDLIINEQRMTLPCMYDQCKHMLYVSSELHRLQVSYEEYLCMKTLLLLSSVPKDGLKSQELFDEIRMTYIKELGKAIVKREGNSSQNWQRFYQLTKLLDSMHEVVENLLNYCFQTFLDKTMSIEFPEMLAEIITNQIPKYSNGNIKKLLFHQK
Briefly: GR functional assay using SW1353/MMTV-5 cells (dexamethasone-induced luciferase). Also noted: contains endogenous glucocorticoid receptors; endogenous in cells; host or cells: SW1353/MMTV-5 (human chondrosarcoma, stably carrying the pMAMneo-Luc reporter). Conditions: read-out: GR Functional. The assay is classed as cell-based. The procedure:
SW1353/MMTV-5 is an adherent human chondrosarcoma cell line that contains endogenous glucocorticoid receptors. It was transfected with a plasmid (pMAMneo-Luc) encoding firefly luciferase located behind a glucocorticoid-responsive element (GRE) derived from a viral promoter (long terminal repeat of mouse mammary tumor virus). A stable cell line SW1353/MMTV-5 was selected with geneticin, which was required to maintain this plasmid.
SW1353/MMTV-5 cells were distributed in 96-well plates and incubated in medium (without geneticin) for 24 hrs (in the absence of CO2).

Assay [2] addresses T1, glucocorticoid receptors. The experiment in a line: Glucocorticoid receptor binding displacement assay with 3H-dexamethasone. The conditions noted are these: Ki from IC50 by Cheng-Prusoff; 2.5 nM 3H-dexamethasone; read-out: GR Binding. Also noted: This GR was a full-length steroid hormone receptor; host or cells: recombinant baculovirus-infected insect cells. The procedure:
The source of the receptor was recombinant baculovirus-infected insect cells. This GR was a full-length steroid hormone receptor likely to be associated with heat-shock and other endogenous proteins.
For the Primary Screen, test compounds were tested at 1 μM in duplicate. These compounds were diluted from 10 mM stock in 100% DMSO. After dilution to 100 μM, 5 μl were added to 245 μl assay buffer to obtained 2 μM compound and 2% DMSO.
For the IC50 determinations, test compounds were tested at 6 concentrations in duplicate (concentration range depends on % inhibition binding that was obtained in the Primary Screen). Test compounds were diluted from 10 mM stock in 100% DMSO. The tested solutions were prepared at 2× final assay concentration in 2% DMSO/assay buffer.
All reagents and the assay plate were kept on ice during the addition of reagents. […] After the additions, the incubation mixture was mixed and incubated for 2.5 hrs at 4° C.
After 2.5 hrs incubation, unbound counts were removed with dextran coated charcoal (DCC) as follows: 25 μl of DCC solution (10% DCC in assay buffer) was added to all wells and mixed (total volume 225 μl). The plate was centrifuged at 4000 rpm for 10 minutes at 4° C. 75 μl of the supernatants (i.e.⅓ of total volume) was carefully pipetted into an optiplate. 200 μl of scintillation cocktail were added (Microscint-40, Packard Bioscience. B.V.). The plate was vigorously shaken for approx. 10 minutes and counted on Topcount.
The IC50 values were converted to Ki (the inhibition constant) using the Cheng-Prusoff equation.
Reagents: Assay buffer: 10 mM potassium phosphate buffer pH 7.6 containing 5 mM DTT, 10 mM sodium molybdate, 100 μM EDTA and 0.1% BSA.

[3] abbreviates: SW1353/MMTV-5 cells, antagonism of 50 nM dexamethasone, luciferase.

Each structure is given as a SMILES string. pKi: −log10 of the molar value.

With `C[C@]12Cc3cnn(-c4ccc(F)cc4)c3C=C1CCN(S(=O)(=O)N1CCCCC1)C2`, the pKi in assay [1] is less than 7.00; in assay [2] it was 7.00 to 8.00.

As to `CC(C)(C)c1ccc(S(=O)(=O)N2CCC3=Cc4c(cnn4-c4ccncc4)C[C@]3(C)C2)cc1`, the pKi in assay [1] was less than 7.00; in assay [2] it was more than 8.00.

Turning to `C[C@]12Cc3cnn(-c4ccc(F)cc4)c3C=C1CCN(S(=O)(=O)c1ccc(N)cc1)C2`, the pKi in assay [1] is less than 7.00; in assay [2], 7.00 to 8.00.

Consider `CC(C)(C)S(=O)(=O)N1CCC2=Cc3c(cnn3-c3ccc(F)cc3)C[C@]2(C)C1`, for which the pKi in assay [1] and in assay [2] was less than 7.00 each time.

`COC(=O)[C@]12Cc3cnn(-c4ccc(F)cc4)c3C=C1CCN(S(=O)(=O)c1ccc(C(C)(C)C)cc1)C2`: the pKi was 7.00 to 8.00 in assay [1] and more than 8.00 in assay [2].

Consider `CCCCn1ncc2c1C=C1CCN(S(=O)(=O)c3ccc(C(C)(C)C)cc3)C[C@@]1(C(=O)OC)C2`, for which the figures for the pKi in assay [1] and in assay [2] were less than 7.00 and 7.00 to 8.00, respectively.

In the case of `COC(=O)[C@]12Cc3cnn(C(C)C)c3C=C1CCN(S(=O)(=O)c1ccc(C(C)(C)C)cc1)C2`, the pKi in assay [1] is less than 7.00; in assay [2], 7.00 to 8.00.

`CC(C)(C)c1ccc(S(=O)(=O)N2CCC3=Cc4c(cnn4-c4ccc(F)cc4)C[C@]3(CO)C2)cc1`: the pKi in assay [1] is 7.00 to 8.00; in assay [2], more than 8.00.

With `O=S(=O)(c1ccc(F)cc1)N1CCC2=Cc3c(cnn3-c3ccc(F)cc3)C[C@]2(CO)C1`, the pKi is less than 7.00 in assay [1] and more than 8.00 in assay [2].

Turning to `Cc1ccc(S(=O)(=O)N2CCC3=Cc4c(cnn4-c4ccc(F)cc4)C[C@]3(CO)C2)cc1`, the values for the pKi in assay [1] and in assay [2] were 7.00 to 8.00 and more than 8.00, respectively.

`COC[C@]12Cc3cnn(-c4ccc(F)cc4)c3C=C1CCN(S(=O)(=O)c1ccc(C(C)(C)C)cc1)C2`: the pKi in assay [1] and in assay [2] was more than 8.00 throughout.

For `COCCOC[C@]12Cc3cnn(-c4ccc(F)cc4)c3C=C1CCN(S(=O)(=O)c1ccc(C(C)(C)C)cc1)C2`, the pKi in assay [1] and in assay [2] was more than 8.00 in each case.

With `O=S(=O)(c1ccccc1)N1CCC2=Cc3c(cnn3-c3ccc(F)cc3)C[C@]2(COCCO)C1`, the figures for the pKi in assay [1] and in assay [2] were 7.00 to 8.00 and more than 8.00, respectively.

Consider `CCOC[C@]12Cc3cnn(-c4ccc(F)cc4)c3C=C1CCN(S(=O)(=O)c1ccc(C(C)(C)C)cc1)C2`, for which the pKi in assay [1] and in assay [2] was more than 8.00 in each case.

As to `CN1CCOc2cc(S(=O)(=O)N3CCC4=Cc5c(cnn5-c5ccc(F)cc5)CC4(Cc4ccc(F)cc4)C3)ccc21` (stereo not drawn), the pKi in assay [1] and in assay [2] was more than 8.00 throughout.

As to `O=S(=O)(c1ccc(N2CCOCC2)nc1)N1CCC2=Cc3c(cnn3-c3ccc(F)cc3)CC2(Cc2ccc(F)cc2)C1` (stereo not drawn), the pKi is 7.00 to 8.00 in assay [1] and more than 8.00 in assay [2].

Take `CC(C)(C)c1ccc(CN2CCC3=Cc4c(cnn4-c4ccc(F)cc4)CC3(Cc3ccc(F)cc3)C2)cn1` (stereo not drawn): the figures for the pKi in assay [1] and in assay [2] were less than 7.00 and more than 8.00, respectively.

Take `CCCN1CCC2=Cc3c(cnn3-c3ccc(F)cc3)CC2(Cc2ccc(F)cc2)C1` (stereo not drawn): the pKi in assay [1] is less than 7.00; in assay [2] it was 7.00 to 8.00.

`Fc1ccc(-n2ncc3c2C=C2CCN(Cc4c[nH]cn4)CC2(Cc2ccccc2)C3)cc1` (stereo not drawn): the pKi in assay [1] and in assay [2] was less than 7.00 each time.

For `Fc1ccc(-n2ncc3c2C=C2CCN(Cc4ccncc4)CC2(Cc2ccccc2)C3)cc1` (stereo not drawn), the values for the pKi in assay [1] and in assay [2] were less than 7.00 and 7.00 to 8.00, respectively.

On to `O=C(Nc1ccccc1)N1CCC2=Cc3c(cnn3-c3ccc(F)cc3)CC2(Cc2ccc(F)cc2)C1` (stereo not drawn), for which the figures for the pKi in assay [1] and in assay [2] were 7.00 to 8.00 and more than 8.00, respectively.

Regarding `CN1CCN(S(=O)(=O)N2CCC3=Cc4c(cnn4-c4ccc(F)cc4)CC3(Cc3ccc(F)cc3)C2)CC1` (stereo not drawn), the pKi in assay [1] was less than 7.00; in assay [2], 7.00 to 8.00.

Turning to `O=S(=O)(N1CCCCC1)N1CCC2=Cc3c(cnn3-c3ccc(F)cc3)CC2(Cc2ccc(F)cc2)C1` (stereo not drawn), the pKi is less than 7.00 in assay [1] and 7.00 to 8.00 in assay [2].

As for `CN(C)C(=O)CN1CCC2=Cc3c(cnn3-c3ccc(F)cc3)CC2(Cc2ccccc2)C1` (stereo not drawn), the pKi in assay [1] and in assay [2] was less than 7.00 in each case.

In the case of `COCCOC[C@]12Cc3cnn(C4CCCC4)c3C=C1CCN(S(=O)(=O)c1ccc(C)cc1)C2`, the results for the pKi in assay [1] and in assay [2] were 7.00 to 8.00 and more than 8.00, respectively.

Turning to `CC(C)(C)c1ccc(S(=O)(=O)N2CCC3=Cc4[nH]ncc4CC3(Cc3ccccc3)C2)cc1` (stereo not drawn) [drawing 229], the pKi in assay [1] (setting [3]) was 7.00 to 8.00; in assay [2], more than 8.00.

As for `O=S(=O)(c1ccc(N2CCOCC2)cc1)N1CCC2=Cc3[nH]ncc3CC2(Cc2ccccc2)C1` (stereo not drawn) [drawing 230], the pKi in assay [1] (setting [3]) was less than 7.00; in assay [2], more than 8.00.

As for `CN1CCOc2cc(S(=O)(=O)N3CCC4=Cc5[nH]ncc5CC4(Cc4ccccc4)C3)ccc21` (stereo not drawn) [drawing 231], the pKi is less than 7.00 in assay [1] (setting [3]) and more than 8.00 in assay [2].

As to `Cn1cc2c(n1)C=C1CCN(S(=O)(=O)c3ccc(C(C)(C)C)cc3)CC1(Cc1ccccc1)C2` (stereo not drawn) [drawing 232], the pKi in assay [1] was less than 7.00; in assay [2], more than 8.00.

For `CC(C)(C)c1ccc(S(=O)(=O)N2CCC3=Cc4c(cnn4-c4ccc(F)cc4)CC3(Cc3ccccc3)C2)cc1` (stereo not drawn) [drawing 233], the pKi in assay [1] is 7.00 to 8.00; in assay [2] it was more than 8.00.

With `CC(C)(C)c1ccc(S(=O)(=O)N2CCC3=Cc4c(cnn4Cc4ccccc4)CC3(Cc3ccccc3)C2)cc1` (stereo not drawn) [drawing 237], the pKi in assay [1] is less than 7.00; in assay [2], more than 8.00.

`CC(C)(C)c1ccc(S(=O)(=O)N2CCC3=Cc4c(cnn4-c4ccc(C#N)cc4)CC3(Cc3ccccc3)C2)cc1` (stereo not drawn) [drawing 239]: the pKi was 7.00 to 8.00 in assay [1] and more than 8.00 in assay [2].

As for `CC(C)(C)c1ccc(S(=O)(=O)N2CCC3=Cc4c(cnn4-c4ccc(S(N)(=O)=O)cc4)CC3(Cc3ccccc3)C2)cc1` (stereo not drawn) [drawing 240], the pKi in assay [1] is less than 7.00; in assay [2] it was 7.00 to 8.00.

`CC(C)(C)c1ccc(S(=O)(=O)N2CCC3=Cc4c(cnn4Cc4cccc(O)c4)CC3(Cc3ccccc3)C2)cc1` (stereo not drawn) [drawing 241]: the pKi in assay [1] and in assay [2] was less than 7.00 each time.

`Fc1ccc(-n2ncc3c2C=C2CCN(Cc4ccccc4)CC2(Cc2ccccc2)C3)cc1` (stereo not drawn) [drawing 242]: the pKi was less than 7.00 in assay [1] and 7.00 to 8.00 in assay [2].

As to `COc1ccc(CC23Cc4cnn(-c5ccc(F)cc5)c4C=C2CCN(Cc2ccccc2)C3)cc1` (stereo not drawn) [drawing 244], the pKi in assay [1] was less than 7.00; in assay [2] it was more than 8.00.

Consider `CC(C)(C)c1ccc(S(=O)(=O)N2CCC3=Cc4[nH]ncc4CC3(Cc3ccccc3)C2)cc1` (stereo not drawn) [drawing 245], for which the pKi in assay [1] was 7.00 to 8.00; in assay [2], more than 8.00.

For `O=S(=O)(c1ccc(N2CCOCC2)cc1)N1CCC2=Cc3[nH]ncc3CC2(Cc2ccccc2)C1` (stereo not drawn) [drawing 246], the pKi is less than 7.00 in assay [1] and more than 8.00 in assay [2].

As for `CN1CCOc2cc(S(=O)(=O)N3CCC4=Cc5[nH]ncc5CC4(Cc4ccccc4)C3)ccc21` (stereo not drawn) [drawing 247], the pKi in assay [1] is less than 7.00; in assay [2], more than 8.00.
